Experimental data reported in the NIST ThermoML archive (doi:10.1016/j.jct.2016.03.016).

Test: mn = molality of the nth substance listed, in mol/kg
Conditions: 100 kPa, Liquid; for speed of sound: Frequency=3 MHz, Sing-around technique in a fixed-path interferometer; for mass density: Vibrating tube method

CC(C)Cc1ccc(C(C)C(=O)[O-])cc1.[Na+] (stereo not given) [sodium ibuprofen] + O
Conditions | mass density, 288.15 K [kg/m3] | mass density, 293.15 K [kg/m3] | mass density, 298.15 K [kg/m3] | mass density, 303.15 K [kg/m3] | mass density, 308.15 K [kg/m3] | speed of sound, 288.15 K [m/s] | speed of sound, 293.15 K [m/s] | speed of sound, 298.15 K [m/s] | speed of sound, 303.15 K [m/s] | speed of sound, 308.15 K [m/s]
m1 = 0.05 | 1003.2 | 1002.24 | 1001.03 | 999.585 | 997.921 | 1477.5 | 1492.8 | 1506 | 1517.7 | 1527.8
m1 = 0.15 | 1007.46 | 1006.39 | 1005.07 | 1003.52 | 1001.77 | 1496.9 | 1510.7 | 1522.9 | 1533.4 | 1542.4
m1 = 0.25 | 1010.79 | 1009.6 | 1008.17 | 1006.53 | 1004.69 | 1510.2 | 1522.3 | 1533.1 | 1542.4 | 1550.3
m1 = 0.35 | 1015.17 | 1013.83 | 1012.29 | 1010.55 | 1008.62 | 1518.1 | 1529.1 | 1538.9 | 1547.4 | 1554.5
